Details: Gas, Hot wire method

[Ar] [argon]
Details	thermal conductivity [W/m/K]
304.8 K, 1020 kPa	0.01821
304.8 K, 1560 kPa	0.01835
304.8 K, 2320 kPa	0.01869
304.8 K, 2590 kPa	0.01877
304.8 K, 4470 kPa	0.01959
329 K, 1200 kPa	0.0193
329 K, 1270 kPa	0.01953
329 K, 1960 kPa	0.01978
329 K, 2340 kPa	0.01995
329 K, 3030 kPa	0.02016
329 K, 3630 kPa	0.0203
329 K, 5980 kPa	0.02118
329 K, 7320 kPa	0.02192
360.05 K, 1240 kPa	0.02086
360.05 K, 1560 kPa	0.02098
360.05 K, 1640 kPa	0.02104
360.05 K, 2240 kPa	0.02129
360.05 K, 3200 kPa	0.02158
360.05 K, 4160 kPa	0.02192
360.05 K, 8720 kPa	0.0239
389.3 K, 1390 kPa	0.02227
389.3 K, 2140 kPa	0.02255
389.3 K, 2780 kPa	0.02276
389.3 K, 3330 kPa	0.02288
389.3 K, 3560 kPa	0.02304
389.3 K, 4190 kPa	0.02323
389.3 K, 5350 kPa	0.02353
389.3 K, 6050 kPa	0.02385
389.3 K, 6660 kPa	0.02405
389.3 K, 7500 kPa	0.0243
389.3 K, 8260 kPa	0.02466
389.3 K, 8500 kPa	0.02463
417.5 K, 1210 kPa	0.02336
417.5 K, 1400 kPa	0.02343
417.5 K, 2110 kPa	0.02369
417.5 K, 2740 kPa	0.02395
417.5 K, 3420 kPa	0.02415
417.5 K, 4130 kPa	0.02432
417.5 K, 4800 kPa	0.02459
417.5 K, 5470 kPa	0.02478
417.5 K, 6180 kPa	0.02504
417.5 K, 6890 kPa	0.02521
417.5 K, 7580 kPa	0.0256
417.5 K, 8270 kPa	0.02577
475.7 K, 1090 kPa	0.02562
475.7 K, 1410 kPa	0.02575
475.7 K, 2120 kPa	0.02608
475.7 K, 2790 kPa	0.02636
475.7 K, 3520 kPa	0.02652
475.7 K, 4250 kPa	0.02683
475.7 K, 5010 kPa	0.02692
475.7 K, 6100 kPa	0.02742
475.7 K, 7980 kPa	0.02789

Reference: the NIST ThermoML archive (doi:10.1007/s10765-006-0093-7)
